Reference: paper PMC5007854, “β-Nitrostyrenes as Potential Anti-leishmanial Agents” (Frontiers in Microbiology, 2016)
In brackets after ≈: the same amount, converted by molar mass. Like-named read-outs stand apart in the source and are kept apart here.

Experiments:
[1] = system: Aspergillus fumigatus ATCC 16424; assay: Broth microdilution antifungal susceptibility (MIC/MFC); format: cell-based; conditions: for MIC / MFC: Aspergillus fumigatus; for MIC: ATCC16424, 48 h
Procedure, shortened: (§1)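 CLSI broth microdilution: Ca/Mg-supplemented Mueller-Hinton for bacteria (~5 × 10^5 CFU/mL, 24 h), MOPS-buffered RPMI 1640 pH 7.0 for fungi (Candida ~2.5 × 10^4, Aspergillus 0.4-5 × 10^4 CFU/mL, 48 h), 35°C, 1% DMSO, 64 to 0.12 μg/mL. MIC read visually; MBC/MFC by plating clear wells.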

[2] = system: Aspergillus niger ATCC 16404; assay: as above; format: cell-based; conditions: for MIC / MFC: Aspergillus niger; for MIC: ATCC16404, 48 h
Procedure, shortened: as §1

[3] = system: Candida albicans ATCC 90028; assay: as above; format: cell-based; conditions: for MIC / MFC: Candida albicans; for MIC: ATCC90028, 48 h
Procedure, shortened: as §1

[4] = system: Candida glabrata ATCC 90030; assay: as above; format: cell-based; conditions: for MIC / MFC: Nakaseomyces glabratus; for MIC: ATCC90030, 48 h
Procedure, shortened: as §1

[5] = system: L. donovani promastigotes; assay: Leishmanicidal assay (growth reversion after wash-out); format: cell-based, Leishmania donovani; conditions: 1 μM, 72 h treatment, then 72 h in fresh media
Procedure: To confirm the leishmanicidal effect of compounds 9, 12, 14, and 18, treated and untreated parasites (1 μM) after 72 h of incubation, were washed two times with fresh incomplete medium and finally resuspended in complete media, transferred back to 22°C and allowed to grow for 72 h. The viability of the parasites was determined microscopically (Afrin et al., [2001]).

[6] = system: L. donovani promastigotes; assay: Promastigote cellular morphology by phase-contrast microscopy; format: cell-based, Leishmania donovani; conditions: 1 μM, 72 h
Procedure: Changes in the cellular morphology of Leishmania parasites as a result of compounds 9, 12, 14, and 18 treatment was observed microscopically. Briefly, the promastigotes (2 × 10^6 cells/mL) were incubated in the absence or presence of compounds and AmB for 72 h at a concentration of 1 μM and observed under 40 × objective of a phase-contrast microscope. […] Data were recorded by using NIS-Elements imaging software (Paris et al., [2004]).

[7] = system: nitric oxide production in L. donovani infected peritoneal macrophages; assay: Nitrite (NO) production by Griess reaction in infected macrophages; format: cell-based, BALB/c mice; conditions: 48 h; for NO levels, in words: 0–25 μM; for NO production (nitrite): compound at 25 μM
Procedure: The supernatant from control L. donovani infected and treated macrophages were analyzed for nitrite content by the Griess reaction. In brief, equal volume of Griess reagent [1%sulphanilamide and 0.1% N-(1-naphthyl) ethylenediaminedihydrochloride in 5% phosphoric acid] was added to the culture supernatant and the plates were incubated for 10 min at room temperature using sodium nitrite as a standard. The absorbance at 550 nm was measured and the concentration of nitrite was calculated by a linear regression analyzing the standard curve generated with sodium nitrite (Varela et al., [2012]).

[8] = read-out: MIC, Af ATCC 16424, broth microdilution, 35°C, 48 h
[9] = ATCC16424, read-out: MFC, Af ATCC 16424
[10] = broth microdilution, 35°C, 48 h
[11] = read-out: MIC, An ATCC 16404, broth microdilution, 35°C, 48 h
[12] = ATCC16404, read-out: MFC, An ATCC 16404
[13] = read-out: MIC, Ca ATCC 90028, broth microdilution, 35°C, 48 h
[14] = ATCC90028, read-out: MFC, Ca ATCC 90028
[15] = read-out: MIC, Cg ATCC 90030, broth microdilution, 35°C, 48 h
[16] = ATCC90030, read-out: MFC, Cg ATCC 90030
[17] = broth microdilution, 35°C, 48 h, read-out: MIC, Af ATCC 16424
[18] = ATCC16424, ≥99.9% reduction of original inoculum, read-out: MFC, Af ATCC 16424
[19] = broth microdilution, 35°C, 48 h, read-out: MIC, An ATCC 16404
[20] = ATCC16404, ≥99.9% reduction of original inoculum, read-out: MFC, An ATCC 16404
[21] = ATCC90028, ≥99.9% reduction of original inoculum, read-out: MFC, Ca ATCC 90028
[22] = ATCC90030, ≥99.9% reduction of original inoculum, read-out: MFC, Cg ATCC 90030

| SMILES | MIC [1, 8] [µg/mL] | MFC [1, 9] [µg/mL] | MIC, Af ATCC 16424 [1, 10] [µg/mL] | MIC [2, 11] [µg/mL] | MFC [2, 12] [µg/mL] | MIC, An ATCC 16404 [2, 10] [µg/mL] | MIC [3, 13] [µg/mL] | MFC [3, 14] [µg/mL] | MIC [4, 15] [µg/mL] | MFC [4, 16] [µg/mL] | Leishmanicidal effect (reversion after wash and 72 h in fresh media) [5] | Cellular morphological alterations of promastigotes [6] | NO levels, in words [7] | NO production (nitrite) [7] [µM] | MIC [1, 17] [µg/mL] | MFC [1, 18] [µg/mL] | MIC [2, 19] [µg/mL] | MFC [2, 20] [µg/mL] | MFC [3, 21] [µg/mL] | MFC [4, 22] [µg/mL] | further results |
| --- | --- | --- | --- | --- | --- | --- | --- | --- | --- | --- | --- | --- | --- | --- | --- | --- | --- | --- | --- | --- | --- |
| CC/C(=C\c1ccc([N+](=O)[O-])cc1)[N+](=O)[O-] [Compound 9, 1-nitro-4-((E)-2-nitrobut-1-enyl) benzene] | 4 to 8 (≈ 18 to 36 µM) | 8 (≈ 36 µM) | 8 (≈ 36 µM) | 2 to 4 (≈ 9 to 18 µM) | 4 (≈ 18 µM) | 4 (≈ 18 µM) | 4 to 32 (≈ 18 to 144 µM) | 8 (≈ 36 µM) | 0.25 to 16 (≈ 1.13 to 72 µM) | 0.25 (≈ 1.13 µM) | did not revert back to their normal morphology and still appeared dead | altered to an ovoid shape with cell shrinkage, loss of flagella, cytoplasmic condensation | moderately increased | 8.05 | – | – | – | – | – | – | MIC, Ca ATCC 90028 [3, 10]: 8 µg/mL (≈ 36 µM); MIC, Cg ATCC 90030 [4, 10]: 0.25 µg/mL (≈ 1.13 µM) |
| CC/C(=C\c1ccc(O)cc1)[N+](=O)[O-] [Compound 18, 4-((E)-2-nitrobut-1-enyl) phenol] | – | – | 8 (≈ 41.4 µM) | – | – | 4 (≈ 20.7 µM) | – | – | – | – | did not revert back to their normal morphology and still appeared dead | altered to an ovoid shape with cell shrinkage, loss of flagella, cytoplasmic condensation | – | 3.22 | 4 to 8 (≈ 20.7 to 41.4 µM) | 16 (≈ 82.8 µM) | 2 to 4 (≈ 10.4 to 20.7 µM) | 8 (≈ 41.4 µM) | 16 (≈ 82.8 µM) | 8 (≈ 41.4 µM) | – |
| CC/C(=C\c1cccc([N+](=O)[O-])c1)[N+](=O)[O-] [Compound 12, 1-nitro-3-((E)-2-nitrobut-1-enyl) benzene] | 1 (≈ 4.5 µM) | 1 (≈ 4.5 µM) | – | 0.5 (≈ 2.25 µM) | 0.5 (≈ 2.25 µM) | – | 2 (≈ 9 µM) | 2 (≈ 9 µM) | 0.25 (≈ 1.13 µM) | 0.25 (≈ 1.13 µM) | did not revert back to their normal morphology and still appeared dead | altered to an ovoid shape with cell shrinkage, loss of flagella, cytoplasmic condensation | moderately increased | 7.89 | – | – | – | – | – | – | – |
| COc1ccc(/C=C(\C)[N+](=O)[O-])cc1 [Compound 14, 1-methoxy-4-((E)-2-nitroprop-1-enyl) benzene] | – | – | – | – | – | – | – | – | – | – | did not revert back to their normal morphology and still appeared dead | altered to an ovoid shape with cell shrinkage, loss of flagella, cytoplasmic condensation | mildly induced | 5.89 | 8 (≈ 41.4 µM) | 8 (≈ 41.4 µM) | 4 (≈ 20.7 µM) | 4 (≈ 20.7 µM) | 32 (≈ 166 µM) | 8 (≈ 41.4 µM) | MIC ([3]; broth microdilution, 35°C, 48 h, read-out: MIC, Ca ATCC 90028): 32 µg/mL (≈ 166 µM); MIC ([4]; broth microdilution, 35°C, 48 h, read-out: MIC, Cg ATCC 90030): 8 µg/mL (≈ 41.4 µM) |
